# Reference: patent publication US8623429B2, “Stabilized anthocyanin compositions” (Omnica GmbH, priority 2007, dated 2014)
# Columns and labels:
# [1] = Example 3: stability of black currant extract anthocyanosides, 4 hours at 37° C., pH 7.0, with/without DHLA, GSH or L-cysteine (HPLC); assay type: physicochemical; settings: for Peak Area, Fresh solution: black currant extract 60 mg/100 ml buffer pH 7.0, fresh sample; for % left, DHLA 20 mg / % left, GSH 20 mg / % left, L-cysteine 20 mg / Peak Area, DHLA 20 mg / Peak Area, GSH 20 mg / Peak Area, L-cysteine 20 mg / % left, Blank / Peak Area, Blank: pH 7.0, 37° C., 4 hours; for % left, Blank / Peak Area, Blank: unprotected
# Experimental: (§1) Sample a) 60 mg black currant extract [35% anthocyanosides] (0.037 mmol anthocyanosides expressed as cyanidin-3-O-rutinoside) were added to a 100 ml flask and filled to volume with sodium phosphate buffer (5% [w/w], pH=7.0) and stirred until dissolution was complete. A 1 ml sample was taken immediately, acidified with formic acid to pH=1.0 and analyzed by HPLC for the content of anthocyanosides (Fresh Sample). The remaining solution was kept for 4 hours at 37° C. (water bath) with stirring. Thereafter samples (Blank sample), representing unprotected degradation, were taken and acidified.
# Sample b) 20 mg reduced L-glutathione (0.065 mmol) were added to a 100 ml flask with 60 ml sodium phosphate buffer (5% [w/w], pH=7.0) and stirred until dissolution was complete. 60 mg black currant extract [35% anthocyanosides] (0.037 mmol anthocyanosides expressed as cyanidin-3-O-rutinoside) were then added and the flask was filled to volume with sodium phosphate buffer (5% [w/w], pH=7.0) and kept for 4 hours at 37° C. (water bath) with stirring.
# Sample c) 20 mg dihydrolipoic acid (0.096 mmol) were added to a 100 ml flask with 60 ml sodium phosphate buffer (5% [w/w], pH=7.0) and stirred until dissolution was completed. 60 mg black currant extract [35% anthocyanosides] (0.037 mmol anthocyanosides expressed as cyanidin-3-O-rutinoside) were added to the flask, filled to volume with sodium phosphate buffer (5% [w/w], pH=7.0) and kept for 4 hours at 37° C. (water bath) with stirring.
# Sample d) 20 mg L-cysteine acid (0.165 mmol) were added to a 100 ml flask with 60 ml sodium phosphate buffer (5% [w/w], pH=7.0) and stirred until dissolution was complete. 60 mg black currant extract [35% anthocyanosides] (0.037 mmol anthocyanosides expressed as cyanidin-3-O-rutinoside) were added to the flask, filled to volume with sodium phosphate buffer (5% [w/w], pH=7.0) and kept for 4 hours at 37° C. (water bath) with stirring.
# After 4 hours samples were taken, acidified immediately with formic acid to pH=1.0 and analyzed by HPLC for the content of anthocyanosides. Degradation is expressed as decrease in peak area of individual peaks (calculated as % left after 4 hours).
# (§2) Samples were prepared as outlined below in HPLC Analytical Method. Test stability samples were immediately acidified (to block degradation) and injected undiluted following the detailed description provided below.
# HPLC Analytical Method (Materials, Instruments and Methods): […]
# [2] = Example 5: degradation over time of black currant anthocyanosides at 37° C., pH 7.0, with/without GSH (HPLC); assay type: physicochemical; settings: pH 7.0, 37° C.; for %-residual anthocyanosides (% left): 4 hours
# Experimental: as §1, with “flask,” for “flask and”, “anthocyanosides.” for “anthocyanosides (Fresh Sample).”, “kept” for “kept for 4 hours”, “stirring and 1 ml” for “stirring. Thereafter”, “Samples),” for “sample),”, “every 15 minutes. The samples were analyzed for selected anthocyanosides by HPLC.” for “and acidified.”
# Sample b) 20 mg reduced L-glutathione (0.065 mmol) were added to a 100 ml flask with 60 ml sodium phosphate buffer (5% [w/w], pH=7.0) and stirred until dissolution was complete. 60 mg black currant extract [35% anthocyanosides] (0.037 mmol anthocyanosides expressed as cyanidin-3-O-rutinoside) were added, the flask was filled to volume with sodium phosphate buffer (5% [w/w], pH=7.0) and kept for at 37° C. (water bath) with stirring. Every 15 minutes 1 ml samples were taken and analyzed for selected anthocyanosides by HPLC.
# as §2
# [3] = GSH protected sample (20 mg), 0:00 h
# [4] = GSH protected sample (20 mg), 0:15 h
# [5] = GSH protected sample (20 mg), 0:45 h
# [6] = GSH protected sample (20 mg), 1:00 h
# [7] = GSH protected sample (20 mg), 1:15 h
# [8] = GSH protected sample (20 mg), 1:45 h
# [9] = GSH protected sample (20 mg), 2:00 h
# [10] = GSH protected sample (20 mg), 2:15 h
# [11] = GSH protected sample (20 mg), 2:45 h
# [12] = GSH protected sample (20 mg), 3:00 h
# [13] = GSH protected sample (20 mg), 3:15 h
# [14] = GSH protected sample (20 mg), 3:45 h
# [15] = GSH protected sample (20 mg), 4:00 h
# [16] = GSH protected sample (20 mg), 4:15 h
smiles,measurement,setting,value
"C[C@@H]1O[C@@H](OC[C@H]2O[C@@H](Oc3cc4c(O)cc(O)cc4[o+]c3-c3ccc(O)c(O)c3)[C@H](O)[C@@H](O)[C@@H]2O)[C@H](O)[C@H](O)[C@H]1O [Cn-3-O-Rut, Cyanidin-3-O-rutinoside]","Peak Area, Fresh solution",[1],3539
same,"% left, DHLA 20 mg",[1],51.1%
same,"% left, GSH 20 mg",[1],65.0%
same,"% left, L-cysteine 20 mg",[1],38.9%
same,"Peak Area, DHLA 20 mg",[1],1809
same,"Peak Area, GSH 20 mg",[1],2299
same,"Peak Area, L-cysteine 20 mg",[1],1377
same,"% left, Blank",[1],33.4%
same,"Peak Area, Blank",[1],1183
same,Peak Area,"[2]; Blank sample, 0:00 h",3539.1
same,Peak Area,"[2]; Blank sample, 0:15 h",2707.4
same,Peak Area,"[2]; Blank sample, 0:30 h",2620.7
same,Peak Area,"[2]; Blank sample, 0:45 h",2342.2
same,Peak Area,"[2]; Blank sample, 1:00 h",2278.1
same,Peak Area,"[2]; Blank sample, 1:30 h",2130.7
same,Peak Area,"[2]; Blank sample, 1:45 h",2104.9
same,Peak Area,"[2]; Blank sample, 2:00 h",1894.9
same,Peak Area,"[2]; Blank sample, 2:15 h",1851.7
same,Peak Area,"[2]; Blank sample, 2:30 h",1790.9
same,Peak Area,"[2]; Blank sample, 2:45 h",1694.9
same,Peak Area,"[2]; Blank sample, 3:00 h",1573.5
same,Peak Area,"[2]; Blank sample, 3:15 h",1531.6
same,Peak Area,"[2]; Blank sample, 3:30 h",1370.4
same,Peak Area,"[2]; Blank sample, 3:45 h",1361.3
same,Peak Area,"[2]; Blank sample, 4:00 h",1182.9
same,%-residual anthocyanosides (% left),[2]; Blank,33%
same,Peak Area,[2]; [3],3473.6
same,Peak Area,[2]; [4],3108.1
same,Peak Area,[2]; [5],2964.3
same,Peak Area,[2]; [6],3015.3
same,Peak Area,[2]; [7],2958.5
same,Peak Area,[2]; [8],2688.8
same,Peak Area,[2]; [9],2777.8
same,Peak Area,[2]; [10],2579.6
same,Peak Area,[2]; [11],2447.1
same,Peak Area,[2]; [12],2534.7
same,Peak Area,[2]; [13],2366.8
same,Peak Area,[2]; [14],2274.2
same,Peak Area,[2]; [15],2298.9
same,Peak Area,[2]; [16],2199.7
same,%-residual anthocyanosides (% left),[2]; GSH-protected,66%
"C[C@@H]1O[C@@H](OC[C@H]2O[C@@H](Oc3cc4c(O)cc(O)cc4[o+]c3-c3cc(O)c(O)c(O)c3)[C@H](O)[C@@H](O)[C@@H]2O)[C@H](O)[C@H](O)[C@H]1O [Dp-3-O-Rut, Delphinidin-3-O-rutinoside]","Peak Area, Fresh solution",[1],5207
same,"% left, DHLA 20 mg",[1],51.7%
same,"% left, GSH 20 mg",[1],53.1%
same,"% left, L-cysteine 20 mg",[1],38.0%
same,"Peak Area, DHLA 20 mg",[1],2692
same,"Peak Area, GSH 20 mg",[1],2764
same,"Peak Area, L-cysteine 20 mg",[1],1975
same,"% left, Blank",[1],12.0%
same,"Peak Area, Blank",[1],626.2
same,Peak Area,"[2]; Blank sample, 0:00 h",5207.5
same,Peak Area,"[2]; Blank sample, 0:15 h",3604.2
same,Peak Area,"[2]; Blank sample, 0:30 h",3366.5
same,Peak Area,"[2]; Blank sample, 0:45 h",2787.9
same,Peak Area,"[2]; Blank sample, 1:00 h",2660.6
same,Peak Area,"[2]; Blank sample, 1:30 h",2299.5
same,Peak Area,"[2]; Blank sample, 1:45 h",2291.6
same,Peak Area,"[2]; Blank sample, 2:00 h",1825.7
same,Peak Area,"[2]; Blank sample, 2:15 h",1747.2
same,Peak Area,"[2]; Blank sample, 2:30 h",1552.5
same,Peak Area,"[2]; Blank sample, 2:45 h",1442.9
same,Peak Area,"[2]; Blank sample, 3:00 h",1235.4
same,Peak Area,"[2]; Blank sample, 3:15 h",1166.0
same,Peak Area,"[2]; Blank sample, 3:30 h",907.2
same,Peak Area,"[2]; Blank sample, 3:45 h",891.1
same,Peak Area,"[2]; Blank sample, 4:00 h",626.2
same,%-residual anthocyanosides (% left),[2]; Blank,12%
same,Peak Area,[2]; [3],5201.3
same,Peak Area,[2]; [4],4584.2
same,Peak Area,[2]; [5],4275.7
same,Peak Area,[2]; [6],4273.1
same,Peak Area,[2]; [7],4168.7
same,Peak Area,[2]; [8],3749.9
same,Peak Area,[2]; [9],3813.3
same,Peak Area,[2]; [10],3544.9
same,Peak Area,[2]; [11],3199.5
same,Peak Area,[2]; [12],3327.2
same,Peak Area,[2]; [13],2993.9
same,Peak Area,[2]; [14],2761.0
same,Peak Area,[2]; [15],2763.6
same,Peak Area,[2]; [16],2579.8
same,%-residual anthocyanosides (% left),[2]; GSH-protected,53%
